Experiment [1] deals with T1, PPAR[…] (positive control rosiglitazone, i.e. PPARγ) (Homo sapiens, UniProt P37231).
T1 construct: expressed in transfected cells; host or cells: HEK293
Description: PPAR activation in vitro, mammalian-one-hybrid (M1H) GAL4-PPAR-LBD luciferase reporter assay. The class given is cell-based. Particulars: efficacy of positive control rosiglitazone set to 100%; HEK293 cells; third PPAR[…] column. The procedure:
(§1) Compounds (A)-(C) and a positive control were tested at six different concentrations in duplicate:
(§2) The positive controls were GW7647 (PPAR[…]), GW501516 (PPAR[…]) and rosiglitazone (PPAR[…]). The efficacy of the controls were set to 100%.
(§3) Assays were carried out in vitro using mammalian-one-hybrid assays (M1H) comprising GAL4-DNA binding domain-PPAR-LBD fusion constructs in conjunction with 5×GAL4-sites driven Photinus pyralis luciferase reporter constructs in transiently transfected HEK293 cells. The cells were transfected 4-6 hours and grown overnight before compounds were added. Compound incubation was 16-20 hours. Renilla reniformis luciferase, driven by a constitutive promoter, was included as internal control to improve experimental accuracy.

Experiment [2] addresses T2, PPAR[…] (positive control GW501516, i.e. PPARδ) (Homo sapiens, UniProt Q03181).
T2 construct: expressed in transfected cells; host or cells: HEK293
T2 sequence (Q03181 211-439 limits assumed): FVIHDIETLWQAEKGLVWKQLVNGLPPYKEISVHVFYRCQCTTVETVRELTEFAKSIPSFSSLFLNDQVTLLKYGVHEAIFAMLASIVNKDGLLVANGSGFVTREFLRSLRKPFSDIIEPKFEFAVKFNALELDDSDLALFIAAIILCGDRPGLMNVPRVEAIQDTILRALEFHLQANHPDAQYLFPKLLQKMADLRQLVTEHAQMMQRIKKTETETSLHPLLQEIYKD
T2 sequence (P04386 1-147 partner limits assumed): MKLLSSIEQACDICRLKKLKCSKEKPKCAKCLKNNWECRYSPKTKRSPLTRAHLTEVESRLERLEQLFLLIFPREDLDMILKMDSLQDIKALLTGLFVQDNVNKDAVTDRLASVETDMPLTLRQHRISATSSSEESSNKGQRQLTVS
The description is as above. In kind it is cell-based. Particulars: second PPAR[…] column; for Efficacy: efficacy of positive control GW501516 set to 100%, HEK293 cells; for EC50: transiently transfected HEK293 cells, compound incubation 16-20 hours. On the procedure:
as §1, §2, §3

Experiment [3] has as its target T3, PPAR[…] (positive control GW7647, i.e. PPARα) (Homo sapiens, UniProt Q07869).
T3 construct: expressed in transfected cells; host or cells: HEK293
T3 sequence (Q07869 239-466 limits assumed, species assumed): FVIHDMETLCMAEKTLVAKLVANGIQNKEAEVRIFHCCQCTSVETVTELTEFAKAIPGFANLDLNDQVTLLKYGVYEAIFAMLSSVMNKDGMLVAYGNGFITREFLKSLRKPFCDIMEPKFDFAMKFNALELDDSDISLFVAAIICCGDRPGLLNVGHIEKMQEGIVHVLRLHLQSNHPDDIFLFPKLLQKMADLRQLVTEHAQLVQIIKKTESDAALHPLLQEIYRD
T3 sequence (P04386 1-147 partner limits assumed, species assumed): as the sequence (P04386 1-147 partner limits assumed) above
The description is as above. In kind it is cell-based. Particulars: efficacy of positive control GW7647 set to 100%; HEK293 cells; first PPAR[…] column. On the procedure: as §1, §2, §3

The test system of experiment [4] is APOE*3Leiden.CETP transgenic mice. The experiment in a line: Effects on in vivo atherosclerosis development in a mouse model. The text has this:
The APOE*3Leiden.CETP transgenic mouse has proven to be representative of the human situation with respect to plasma lipoprotein levels and its responsiveness to hypolipidemic drugs (like statins, fibrates etc.) and nutritional intervention. APOE*3Leiden.CETP mice develop atherosclerotic lesions in the aorta resembling those found in humans with respect to cellular composition and morphological and immunohistochemical characteristics.
Female APOE*3Leiden.CETP mice were put on a Western-type diet (WTD) with 0.15% cholesterol and 15% saturated fat; resulting in plasma cholesterol levels of about 13-15 mM. After a 3 week run-in period on the WTD, the mice were sub-divided into 4 groups of 15 mice, control (no treatment), Compound A of Example 2 above, fenofibrate and a low-cholesterol diet. The groups were matched for body weight, plasma total cholesterol (TC), HDL cholesterol (HDL-C) and triglycerides (TG) after 4 h fasting (t=0).
The test substances were administered orally as admix to the Western-type diet. To facilitate the mixing of the compounds sunflower oil was added to a total oil volume of 10 mL/kg diet. Compound (A) was tested at initially at 0.1 mmol/kg bw/day and reduced to 0.04 mmol/kg bw/day at 4 weeks; the initial dose was based on a prior dose-finding study to establish the required dosage that would reduce VLDL/LDL cholesterol by 25-30%. The fenofibrate dose was initially 10 mg/kg bw/day, and later reduced to 4.2 mg/kg bw/day to parallel reductions in VLDL/LDL cholesterol induced by Compound A.
At t=0 and t=17 weeks, blood samples were taken after a 4 hour-fast period to measure plasma cholesterol and triglycerides. Atherosclerosis development in aortic root (total lesion area) was measured at sacrifice.
The results for total cholesterol (mM), HDL cholesterol (mM), lesion area (μm^2*1000) and undiseased segments (%) are shown in FIGS. 4, 5, 6, and 7, respectively.

T1 sequence (P37231 238-503 limits assumed): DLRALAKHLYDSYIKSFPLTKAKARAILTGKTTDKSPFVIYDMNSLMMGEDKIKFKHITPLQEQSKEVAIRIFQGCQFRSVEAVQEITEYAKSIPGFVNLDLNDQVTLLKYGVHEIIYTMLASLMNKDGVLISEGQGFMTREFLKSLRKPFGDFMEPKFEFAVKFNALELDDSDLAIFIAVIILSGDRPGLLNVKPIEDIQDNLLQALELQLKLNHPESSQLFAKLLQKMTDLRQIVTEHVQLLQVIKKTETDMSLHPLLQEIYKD
T1 sequence (P04386 1-147 partner limits assumed): as the sequence (P04386 1-147 partner limits assumed) above

For `CC/C=C\C/C=C\C/C=C\C/C=C\C/C=C\CCCCOC(CC)C(=O)O` (stereo not shown) [Compound A, 2-((5Z,8Z,11Z,14Z,17Z)-icosa-5,8,11,14,17-pentaenyloxy)butanoic acid], the Efficacy was 22% in experiment [1], “inactive” in experiment [2] and 82% in experiment [3]. The EC50 result in experiment [2] was “inactive”. In addition, the development of atherosclerosis result in experiment [4] (APOE*3Leiden.CETP transgenic mice, overall conclusion) was “inhibits”. Further, the lesion area entry in experiment [4] (aortic root, at sacrifice, as compared to control, p<0.003) is on record as “significantly decreased”. The total cholesterol result in experiment [4] (as compared to control, p<0.001, oral admix to Western-type diet, 0.1 then 0.04 mmol/kg bw/day, t=17 weeks) is “significantly decreased”. Besides, in experiment [4] (as compared to control, p<0.003, oral admix to Western-type diet, 0.1 then 0.04 mmol/kg bw/day, t=17 weeks), the HDL cholesterol result is “significantly increased”.
Take `CC/C=C\C/C=C\C/C=C\C/C=C\C/C=C\CCCCO[C@@H](CC)C(=O)O` [Compound B, (S)-2-((5Z,8Z,11Z,14Z,17Z)-icosa-5,8,11,14,17-pentaenyloxy)butanoic acid]: the figures for the Efficacy in experiment [1], in experiment [2] and in experiment [3] were 27%, “inactive” and 86%, respectively. For the same compound, in experiment [2], the EC50 entry is “inactive”.
For the compound `CC/C=C\C/C=C\C/C=C\C/C=C\C/C=C\CCCCO[C@H](CC)C(=O)O` [Compound C, (R)-2-((5Z,8Z,11Z,14Z,17Z)-icosa-5,8,11,14,17-pentaenyloxy)butanoic acid], the Efficacy is 25% in experiment [1], “inactive” in experiment [2] and 54% in experiment [3]. Besides, the EC50 result in experiment [2] was “inactive”.

The values above are taken from patent publication US9394228B2, “Methods of treatment using lipid compounds” (PRONOVA BIOPHARMA NORGE AS, priority 2010, dated 2016).
